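The compound was tested at five concentrations on cells cultured in 96-well plates, with a 48-hour exposure period. At the GI50, growth is halved. Definition used: TGI = concentration required for complete inhibition of growth.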
Assays:
Assay in all cases: NCI tumour cell line growth inhibition, 48 h
TK-10 renal = tested on: TK-10 renal
A549 NSCLC = tested on: A549 NSCLC
SN12C renal = tested on: SN12C renal
SF-268 CNS = tested on: SF-268 CNS
SK-MEL-28 melanoma = tested on: SK-MEL-28 melanoma
SK-MEL-2 melanoma = tested on: SK-MEL-2 melanoma
A498 renal = tested on: A498 renal
SR leukemia = tested on: SR leukemia
SNB-75 CNS = tested on: SNB-75 CNS
MDA-MB-435 = tested on: MDA-MB-435

CC(N)CC(=O)O (stereo not drawn)
TGI (TK-10 renal): > 5000 µM | TGI (A549 NSCLC): > 5000 µM | TGI (SN12C renal): > 5000 µM | TGI (SF-268 CNS): > 5000 µM | TGI (SK-MEL-28 melanoma): > 5000 µM | TGI (SK-MEL-2 melanoma): > 5000 µM | TGI (A498 renal): > 5000 µM | TGI (SR leukemia): > 5000 µM | TGI (SNB-75 CNS): > 5000 µM

CC1CCC2(C)C(CC=C(C=O)C2(O)C=O)C12CO2 (stereo not drawn)
TGI (TK-10 renal): 5.19 µM | TGI (A549 NSCLC): 26.4 µM | TGI (SN12C renal): 8.59 µM | TGI (SF-268 CNS): 18 µM | TGI (SK-MEL-28 melanoma): 3.97 µM | TGI (SK-MEL-2 melanoma): 8.53 µM | TGI (A498 renal): 20.1 µM | TGI (SR leukemia): 5.33 µM

C=CC[N+]1(CC)CCN=C1CCCCCCCCCCCCCCCCC (stereo not drawn)
GI50 (TK-10 renal): 1.1 µM | TGI (TK-10 renal): 2.44 µM | GI50 (SN12C renal): 0.623 µM | TGI (SN12C renal): 1.99 µM | GI50 (SF-268 CNS): 0.236 µM | TGI (SF-268 CNS): 0.61 µM | GI50 (SK-MEL-28 melanoma): 0.816 µM | TGI (SK-MEL-28 melanoma): 2.04 µM | GI50 (SK-MEL-2 melanoma): 0.538 µM | TGI (SK-MEL-2 melanoma): 1.59 µM | GI50 (A498 renal): 1440 nM | TGI (A498 renal): 2.86 µM

[Cl][Cu][Cl]
GI50 (TK-10 renal): > 10 µM | TGI (TK-10 renal): > 10 µM | GI50 (A549 NSCLC): > 10 µM | TGI (A549 NSCLC): > 10 µM | GI50 (SN12C renal): > 10 µM | TGI (SN12C renal): > 10 µM | GI50 (SF-268 CNS): > 10 µM | TGI (SF-268 CNS): > 10 µM | GI50 (MDA-MB-435): > 10 µM | TGI (MDA-MB-435): > 10 µM | GI50 (SK-MEL-28 melanoma): > 10 µM | TGI (SK-MEL-28 melanoma): > 10 µM | GI50 (SK-MEL-2 melanoma): > 10 µM | TGI (SK-MEL-2 melanoma): > 10 µM | GI50 (SR leukemia): > 10 µM | TGI (SR leukemia): > 10 µM | GI50 (SNB-75 CNS): > 10 µM | TGI (SNB-75 CNS): > 10 µM

O=C(CO)C1CC2C=CC1C2 (stereo not drawn)
TGI (TK-10 renal): > 100 µM | TGI (A549 NSCLC): > 100 µM | TGI (SN12C renal): > 100 µM | TGI (SF-268 CNS): > 100 µM | TGI (SK-MEL-28 melanoma): > 100 µM | TGI (SK-MEL-2 melanoma): > 100 µM | TGI (A498 renal): > 100 µM | TGI (SNB-75 CNS): > 100 µM

O=C1C(Nc2cccc(O)c2)=C(Sc2ccccc2)C(=O)N1Cc1ccccc1
TGI (TK-10 renal): 16.8 µM | GI50 (A549 NSCLC): 3.81 µM | TGI (A549 NSCLC): 15.9 µM | GI50 (SN12C renal): 13 µM | TGI (SN12C renal): 29.6 µM | GI50 (SF-268 CNS): 10.5 µM | TGI (SF-268 CNS): 26.8 µM | GI50 (MDA-MB-435): 11.1 µM | TGI (MDA-MB-435): 27.4 µM | GI50 (SK-MEL-28 melanoma): 11.8 µM | TGI (SK-MEL-28 melanoma): 26.1 µM | GI50 (SK-MEL-2 melanoma): 11.4 µM | TGI (SK-MEL-2 melanoma): 26.7 µM | GI50 (SR leukemia): 4.74 µM | TGI (SR leukemia): 21.2 µM

C=C1C=CC2(Br)OC3CC(C)(Cl)C(Br)CC13C2(C)C (stereo not drawn)
TGI (TK-10 renal): > 100 µM | TGI (A549 NSCLC): > 100 µM | TGI (SN12C renal): 37.7 µM | TGI (SF-268 CNS): > 100 µM | TGI (SK-MEL-28 melanoma): 54.4 µM | TGI (SK-MEL-2 melanoma): 31.9 µM | TGI (A498 renal): 46.5 µM | TGI (SNB-75 CNS): 77.7 µM

Nc1nc2ccccc2c2c1S(=O)(=O)c1ccc(Cl)cc1C2=O
GI50 (TK-10 renal): 1.93 µM | TGI (TK-10 renal): > 50 µM | GI50 (A549 NSCLC): 3.26 µM | TGI (A549 NSCLC): > 50 µM | GI50 (SN12C renal): 1.16 µM | TGI (SN12C renal): 4.54 µM | GI50 (SF-268 CNS): 1.83 µM | TGI (SF-268 CNS): > 50 µM | GI50 (MDA-MB-435): 1.65 µM | TGI (MDA-MB-435): > 50 µM | GI50 (SK-MEL-28 melanoma): 2.09 µM | TGI (SK-MEL-28 melanoma): 14.1 µM | GI50 (SK-MEL-2 melanoma): 2.27 µM | TGI (SK-MEL-2 melanoma): > 50 µM | GI50 (A498 renal): 2370 nM | TGI (A498 renal): 22.5 µM | GI50 (SR leukemia): 0.917 µM | TGI (SR leukemia): > 50 µM

CC(=O)CC(=O)CCC(=O)Nc1cccc(C(F)(F)F)c1
TGI (TK-10 renal): > 100 µM | TGI (A549 NSCLC): > 100 µM | TGI (SN12C renal): > 100 µM | TGI (SF-268 CNS): > 100 µM | TGI (SK-MEL-2 melanoma): > 100 µM | TGI (A498 renal): > 100 µM

Cc1nnc(N/N=C(/C(=O)C(C#N)c2ccc(Cl)cc2)C(C#N)c2ccc(Cl)cc2)n1N (stereo not drawn)
TGI (TK-10 renal): 34.7 µM | TGI (A549 NSCLC): 43.9 µM | TGI (SN12C renal): 34.9 µM | TGI (SF-268 CNS): 57.2 µM | TGI (SK-MEL-28 melanoma): 33.8 µM | TGI (SK-MEL-2 melanoma): 34.5 µM | TGI (SNB-75 CNS): 30.1 µM

CC(=O)[CH-]C(C)=O.CC(=O)[CH-]C(C)=O.CC(=O)[CH-]C(C)=O.[Ga+3]
GI50 (TK-10 renal): > 100 µM | TGI (TK-10 renal): > 100 µM | GI50 (A549 NSCLC): > 100 µM | TGI (A549 NSCLC): > 100 µM | GI50 (SN12C renal): > 100 µM | TGI (SN12C renal): > 100 µM | GI50 (SF-268 CNS): > 100 µM | TGI (SF-268 CNS): > 100 µM | GI50 (SK-MEL-28 melanoma): > 100 µM | TGI (SK-MEL-28 melanoma): > 100 µM | GI50 (SK-MEL-2 melanoma): > 100 µM | TGI (SK-MEL-2 melanoma): > 100 µM | GI50 (SR leukemia): > 100 µM | TGI (SR leukemia): > 100 µM | GI50 (SNB-75 CNS): > 100 µM | TGI (SNB-75 CNS): > 100 µM

c1ccc(-c2csc3ncn4cnnc4c23)cc1
TGI (TK-10 renal): > 100 µM | TGI (A549 NSCLC): > 100 µM | TGI (SN12C renal): > 100 µM | TGI (SK-MEL-28 melanoma): > 100 µM | TGI (SK-MEL-2 melanoma): > 100 µM | TGI (SNB-75 CNS): 89.3 µM

O=[N+]([O-])c1cc(Cc2cc([N+](=O)[O-])c3cccnc3c2O)c(O)c2ncccc12
TGI (TK-10 renal): 48.3 µM | TGI (A549 NSCLC): 30.8 µM | TGI (SN12C renal): > 65.3 µM | TGI (SF-268 CNS): > 43.8 µM | TGI (MDA-MB-435): 32.7 µM | TGI (SK-MEL-28 melanoma): 37.4 µM | TGI (SK-MEL-2 melanoma): 29.6 µM | TGI (A498 renal): 31.8 µM | TGI (SNB-75 CNS): 24.9 µM

COc1cc(/C=C/C(=O)O[C@H]2[C@H](O[C@@H]3O[C@@H](C)[C@H](O)[C@@H](O)[C@H]3O)[C@@H](O)[C@H](OCCc3ccc(O)c(O)c3)O[C@@H]2COC2OCC(O)(CO)C2O)ccc1O (stereo partly drawn)
GI50 (TK-10 renal): > 100 µM | TGI (TK-10 renal): > 100 µM | GI50 (A549 NSCLC): > 100 µM | TGI (A549 NSCLC): > 100 µM | GI50 (SN12C renal): > 100 µM | TGI (SN12C renal): > 100 µM | GI50 (SF-268 CNS): 49.3 µM | TGI (SF-268 CNS): > 100 µM | GI50 (MDA-MB-435): 17.3 µM | TGI (MDA-MB-435): 35.2 µM | GI50 (SK-MEL-28 melanoma): > 100 µM | TGI (SK-MEL-28 melanoma): > 100 µM | GI50 (SK-MEL-2 melanoma): > 100 µM | TGI (SK-MEL-2 melanoma): > 100 µM | GI50 (SR leukemia): > 100 µM | TGI (SR leukemia): > 100 µM | GI50 (SNB-75 CNS): > 100 µM | TGI (SNB-75 CNS): > 100 µM

Cc1ccc(-n2c(-c3cc4c([nH]c5ccccc54)c(-c4cccc(O)c4)n3)n[nH]c2=S)cc1
GI50 (TK-10 renal): 3.68 µM | TGI (TK-10 renal): 16.2 µM | GI50 (A549 NSCLC): 2.34 µM | TGI (A549 NSCLC): 10.4 µM | GI50 (SN12C renal): 0.936 µM | TGI (SN12C renal): 6.91 µM | GI50 (SF-268 CNS): 1.32 µM | TGI (SF-268 CNS): 10.6 µM | GI50 (MDA-MB-435): 0.649 µM | TGI (MDA-MB-435): 2.75 µM | GI50 (SK-MEL-28 melanoma): 0.628 µM | TGI (SK-MEL-28 melanoma): 4.22 µM | GI50 (A498 renal): 263 nM | TGI (A498 renal): 0.738 µM | GI50 (SR leukemia): 0.443 µM | TGI (SR leukemia): 2.07 µM | GI50 (SNB-75 CNS): 1.34 µM | TGI (SNB-75 CNS): 6.17 µM

N#C/C(=C1\OC(=N)C(c2ccc(Cl)cc2Cl)C1=O)c1ccc(Cl)cc1Cl (stereo not drawn)
TGI (TK-10 renal): > 100 µM | TGI (A549 NSCLC): > 100 µM | TGI (SN12C renal): > 100 µM | TGI (SF-268 CNS): > 100 µM | TGI (SK-MEL-28 melanoma): > 100 µM | TGI (SK-MEL-2 melanoma): > 100 µM | TGI (A498 renal): > 100 µM | TGI (SNB-75 CNS): > 100 µM

O=C(c1c(O)cc(O)cc1O)C1Cc2ccccc21 (stereo not drawn)
TGI (TK-10 renal): > 100 µM | TGI (A549 NSCLC): > 100 µM | TGI (SN12C renal): > 100 µM | TGI (SF-268 CNS): > 100 µM | TGI (SK-MEL-2 melanoma): > 100 µM | TGI (A498 renal): > 100 µM | TGI (SR leukemia): > 100 µM | TGI (SNB-75 CNS): 60.9 µM

CC(=O)OCC(CC[CH2][Sn]([Cl])([Cl])[c]1ccccc1)OC(C)=O (stereo not drawn)
GI50 (TK-10 renal): 27.5 µM | TGI (TK-10 renal): > 100 µM | GI50 (A549 NSCLC): 21.9 µM | TGI (A549 NSCLC): 53 µM | GI50 (SN12C renal): 21 µM | TGI (SN12C renal): 41 µM | GI50 (SF-268 CNS): 18.6 µM | TGI (SF-268 CNS): 33.9 µM | GI50 (SK-MEL-28 melanoma): 40.9 µM | TGI (SK-MEL-28 melanoma): 58.6 µM | GI50 (SK-MEL-2 melanoma): 18.8 µM | TGI (SK-MEL-2 melanoma): 36.4 µM | GI50 (SR leukemia): 10.7 µM | TGI (SR leukemia): 50.4 µM | GI50 (SNB-75 CNS): 55.8 µM | TGI (SNB-75 CNS): > 100 µM

From PubChem BioAssay (NCI)
